Data from patent US20200375864A1, “PERIODONTAL DISEASE TREATMENT” (STRAUMANN HOLDING AG, priority 2013, published 2020).
Entries after “also recorded” stand apart in the source; their conditions may differ.

Legend:
[1] = tested on: supragingival biofilm; assay: 70/30 supragingival biofilm model, biofilm decontamination with antimicrobial solutions (Experiments 1 and 2); format: cell-based; conditions: for biofilm microbiota after 24 h (CFU, FIG. 8) / immediate effect on the biofilm microbiota (CFU, FIG. 8): hydrogen peroxide 0.1% and 1%; for CFU 24 hours after cleaning agent treatment (summary, FIG. 3b) / CFU immediately after cleaning agent treatment (summary, FIG. 3a): supragingival model, experiments 1 and 2; for immediate effect on the biofilm microbiota (CFU, FIG. 8): immediately after application, sodium hypochlorite 0.1%, 1% and 3%, detection limit <2.0E1; for CFU immediately after cleaning agent treatment (summary, FIG. 3a): immediate; for lasting biofilm inhibiting effect, recovery of the microorganisms after 24 h (CFU, FIG. 7) / immediate decontaminating effect compared to the saline control (CFU, FIG. 7): Experiment 1, chlorhexidine 0.2%, hydrogen peroxide 3%; for immediate decontaminating effect compared to the saline control (CFU, FIG. 7): after dip, sodium hypochlorite 3%
Text: Evaluation of biofilm decontamination with various antimicrobial solutions Tested in a 70/30 supragingival biofilm model For a detailed description of the biofilm model used in this experiment, see e.g. Guggenheim et al., 2004, 2001 a; and Shapiro et al., 2002 and Guggenheim et al., 2009. […]

[2] = tested on: subgingival biofilm; assay: subgingival biofilm model on titanium discs, antimicrobial solutions alone, total CFU (Experiment 3); format: cell-based; conditions: for reduction of the microbiota on the biofilms compared with the saline controls immediately after exposure (total CFU, FIG. 13): immediately after 1 min exposure, NaCIO 0.1% and 1%
Text: (§1) Evaluation of subgingival biofilm decontamination with various antimicrobial solutions tested in a subgingival biofilm model For a detailed description of the biofilm model used in this experiment, see e.g. Guggenheim et al., 2004, 2001 a; and Shapiro et al., 2002 and Guggenheim et al., 2009. OMZ 278, Prevotella intermedia OMZ 493, Veilonella dispar OMZ 598, Fusobacterium nucleatum OMZ 607, Streptococcus oralis OMZ 661, Treponema denticola OMZ 698, Campylobacter rectus OMZ 745, Actinomyces oris OMZ 871, Streptococcus anginosus OMZ 925, Porphyromonas gingivalis OMZ 1047, Tannerella forsythia [table] The purpose of the present biofilm experiment was to assess the efficacy of various antimicrobial solutions on a subgingival microbiota associated with periodontitis and implantitis. The antimicrobial effect was evaluated immediately and 24 h after a 1 min exposure to the test solutions to biofilms grown on titanium discs.

[3] = tested on: individual members of the biofilm consortium; assay: subgingival biofilm model, antimicrobial solutions alone, effect on individual species (Experiment 3); format: cell-based; conditions: NaCIO 0.1% and 1%; for P. intermedia and P. gingivalis in the following 24 h (re-growth): 24 h after treatment; for immediate effect on individual species (FIGS. 9, 10 and 11): all species, immediately after 1 min exposure
Text: as §1

[4] = tested on: skin; conditions: 2% solution; cited from earlier work
[5] = cited from earlier work

Row | Structure (SMILES) | biofilm microbiota after 24 h (CFU, FIG. 8) ([1]; Experiment 2, 24 h after dip) | CFU 24 hours after cleaning agent treatment (summary, FIG. 3b) [1] | immediate effect on the biofilm microbiota (CFU, FIG. 8) ([1]; Experiment 2) | CFU immediately after cleaning agent treatment (summary, FIG. 3a) [1] | reduction of the microbiota on the biofilms compared with the saline controls immediately after exposure (total CFU, FIG. 13) ([2]; Experiment 3) | immediate effect on individual species (FIGS. 9, 10 and 11) [3] | immediate decontaminating effect compared to the saline control (CFU, FIG. 7) [1] | further results
1 | [Na+].[O-]Cl [0.1% NaCIO, Sodium hypochlorite] | in part recovered | bacterial regrowth | – | – | – | – | – | –
2 | [H]/N=C(\N/C(=N/[H])NCCCCCCNC(=N)NC(=N)Nc1ccc(Cl)cc1)Nc1ccc(Cl)cc1 [0.2% CHX, Chlorhexidine] | – | clear CFU reduction | low immediate effect | no significant immediate CFU influence | – | – | – | reduction of the biofilm microbiota after 24 h ([1]; Experiment 2, 24 h after dip): ~6 log steps
3 | [H]/N=C(\N/C(=N/[H])NCCCCCCNC(=N)NC(=N)Nc1ccc(Cl)cc1)Nc1ccc(Cl)cc1 [1% CHX, Chlorhexidine] | eradicating totally the biofilm microbiota | clear CFU reduction | – | no significant immediate CFU influence | only a limited effect | only a limited effect | – | P. intermedia and P. gingivalis in the following 24 h (re-growth) [3]: eradication
4 | [H]/N=C(\N/C(=N/[H])NCCCCCCNC(=N)NC(=N)Nc1ccc(Cl)cc1)Nc1ccc(Cl)cc1 [2% chlorhexidine, chlorhexidine] | – | – | – | – | – | – | – | skin irritation [4]: irritating to the skin
5 | OO [3% H2O2, hydrogen peroxide] | – | – | – | – | only a limited effect | only a limited effect | – | –
6 | OCl [3.0% sodium hypochlorite, Sodium hypochlorite] | no detectable microorganisms | – | no detectable microorganisms | – | – | – | – | –
7 | N=C(NCCCCCCNC(=N)NC(=N)Nc1ccc(Cl)cc1)NC(=N)Nc1ccc(Cl)cc1.O=C(O)[C@H](O)[C@@H](O)[C@H](O)[C@H](O)CO.O=C(O)[C@H](O)[C@@H](O)[C@H](O)[C@H](O)CO [CHX gluconate, Chlorhexidine gluconate] | – | – | – | – | – | – | – | solubility in water [5]: water-soluble
8 | [H]/N=C(\N/C(=N/[H])NCCCCCCNC(=N)NC(=N)Nc1ccc(Cl)cc1)Nc1ccc(Cl)cc1 [CHX, Chlorhexidine] | – | – | – | – | – | – | very modest | lasting biofilm inhibiting effect, recovery of the microorganisms after 24 h (CFU, FIG. 7) ([1]; 24 h after dip): strong lasting effect; strong sustained effect on the total CFU after 24 h / biofilm re-growth ([2]; Experiment 3, 24 h after 1 min exposure): not observed
9 | OO [H2O2, hydrogen peroxide] | re-established to the level of the controls | – | low decontaminating action | – | – | – | very modest | lasting biofilm inhibiting effect, recovery of the microorganisms after 24 h (CFU, FIG. 7) ([1]; 24 h after dip): no or minute lasting biofilm inhibiting action
10 | OCl [NaCIO, Sodium hypochlorite] | – | no sustained effect on its own | – | reduces CFU counts the most; also recorded: strong immediate CFU reduction | near or to the detection limit | near or to the detection limit | very impressive | immediate effect on the biofilm microbiota (CFU, FIG. 8) ([1]; Experiment 2, listed as sodium hypochlorite): below the detection level; CFU immediately after cleaning agent treatment (summary, FIG. 3a) ([2]; subgingival model, experiment 3, immediate): strong immediate CFU reduction; P. intermedia and P. gingivalis in the following 24 h (re-growth) [3]: eradication
